From ChEMBL document CHEMBL4152288, “Medicinal Chemistry and Use of Myosin II Inhibitor ( S)-Blebbistatin and Its Derivatives” (J Med Chem, 2018)
Converted amounts (≈) assume the structure as drawn. One block for each compound: values may come before it.

Columns and labels:
Myosin-2 heavy chain [1] = molecular target: T1, Myosin-2 heavy chain (Dictyostelium discoideum, UniProt P08799); assay: Inhibition of Dictyostelium discoideum myosin 2 ATPase activity
[2] = molecular target: Myosin-2 heavy chain (Dictyostelium discoideum) (UniProt P08799); assay: Inhibition of Dictyostelium discoideum myosin 2 ATPase activity at 50 uM relative to control
Sequence of Myosin-2 heavy chain (Dictyostelium discoideum) (P08799 whole entry): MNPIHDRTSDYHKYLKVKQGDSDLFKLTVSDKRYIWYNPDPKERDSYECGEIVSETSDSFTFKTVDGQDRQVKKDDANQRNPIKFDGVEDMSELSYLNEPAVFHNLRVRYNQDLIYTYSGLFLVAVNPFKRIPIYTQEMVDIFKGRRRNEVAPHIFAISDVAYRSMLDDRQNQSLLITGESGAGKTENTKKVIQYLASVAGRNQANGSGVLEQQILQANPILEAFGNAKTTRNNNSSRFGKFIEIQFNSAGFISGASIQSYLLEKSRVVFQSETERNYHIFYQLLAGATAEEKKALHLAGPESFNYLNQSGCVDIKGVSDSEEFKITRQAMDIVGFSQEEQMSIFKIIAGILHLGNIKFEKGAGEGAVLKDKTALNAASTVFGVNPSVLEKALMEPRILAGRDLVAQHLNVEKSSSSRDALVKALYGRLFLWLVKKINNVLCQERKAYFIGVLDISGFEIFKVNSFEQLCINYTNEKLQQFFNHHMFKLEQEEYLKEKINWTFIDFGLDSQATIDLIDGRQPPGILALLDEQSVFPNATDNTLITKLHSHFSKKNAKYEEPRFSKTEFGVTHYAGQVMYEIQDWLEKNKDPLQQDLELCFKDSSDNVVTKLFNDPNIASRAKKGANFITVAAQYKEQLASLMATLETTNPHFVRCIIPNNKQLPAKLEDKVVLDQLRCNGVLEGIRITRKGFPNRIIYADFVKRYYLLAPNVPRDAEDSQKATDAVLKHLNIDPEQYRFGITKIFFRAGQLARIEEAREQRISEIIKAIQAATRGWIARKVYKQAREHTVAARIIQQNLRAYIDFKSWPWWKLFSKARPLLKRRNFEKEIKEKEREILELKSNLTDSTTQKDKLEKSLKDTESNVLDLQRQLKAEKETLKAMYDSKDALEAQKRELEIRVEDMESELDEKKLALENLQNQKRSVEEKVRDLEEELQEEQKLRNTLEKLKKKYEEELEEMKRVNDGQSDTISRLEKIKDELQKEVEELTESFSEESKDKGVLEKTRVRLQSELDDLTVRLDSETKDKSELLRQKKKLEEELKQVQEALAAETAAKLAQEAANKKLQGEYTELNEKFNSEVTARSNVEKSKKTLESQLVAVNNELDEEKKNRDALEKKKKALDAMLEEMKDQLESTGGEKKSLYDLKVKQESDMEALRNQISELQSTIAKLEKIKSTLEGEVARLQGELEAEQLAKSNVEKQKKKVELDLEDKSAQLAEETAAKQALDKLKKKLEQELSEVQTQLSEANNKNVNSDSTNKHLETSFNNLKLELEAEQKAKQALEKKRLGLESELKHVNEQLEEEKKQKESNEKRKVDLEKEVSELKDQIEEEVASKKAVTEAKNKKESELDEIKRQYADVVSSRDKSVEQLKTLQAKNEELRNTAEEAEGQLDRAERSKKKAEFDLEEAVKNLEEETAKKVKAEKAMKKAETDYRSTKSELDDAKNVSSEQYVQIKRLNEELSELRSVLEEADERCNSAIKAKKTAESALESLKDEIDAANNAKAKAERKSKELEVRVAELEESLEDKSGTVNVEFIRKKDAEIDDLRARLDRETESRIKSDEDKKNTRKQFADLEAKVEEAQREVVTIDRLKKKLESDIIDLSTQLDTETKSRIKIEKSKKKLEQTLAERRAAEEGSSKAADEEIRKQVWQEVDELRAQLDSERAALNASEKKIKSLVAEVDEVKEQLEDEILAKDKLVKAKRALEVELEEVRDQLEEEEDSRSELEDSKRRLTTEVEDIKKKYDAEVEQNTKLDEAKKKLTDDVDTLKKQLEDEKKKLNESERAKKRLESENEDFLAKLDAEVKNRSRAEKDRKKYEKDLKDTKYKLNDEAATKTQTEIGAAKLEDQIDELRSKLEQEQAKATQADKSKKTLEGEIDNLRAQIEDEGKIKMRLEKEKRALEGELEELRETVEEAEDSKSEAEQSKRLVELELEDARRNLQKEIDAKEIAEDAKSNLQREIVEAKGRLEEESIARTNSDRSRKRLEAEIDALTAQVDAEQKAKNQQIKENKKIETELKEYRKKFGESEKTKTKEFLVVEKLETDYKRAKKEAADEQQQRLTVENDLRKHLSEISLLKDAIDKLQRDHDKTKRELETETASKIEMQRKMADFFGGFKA

Oryctolagus cuniculus [3] = species: Oryctolagus cuniculus; assay: Inhibition of rabbit skeletal myosin 2 ATPase activity at 50 uM relative to control
Oryctolagus cuniculus [4] = species: Oryctolagus cuniculus; assay: Inhibition of rabbit skeletal myosin 2 ATPase activity at 5 uM relative to control
[5] = Steady state aqueous solubility of the compound in 0.1 % DMSO buffer at 25 degC; type: physicochemical; conditions: aqueous buffer with 0.1% DMSO
[6] = Steady state aqueous solubility of the compound in 10 % DMSO buffer up to 240 mins; type: physicochemical; conditions: 4 h
U-87 MG [7] = assay: Cytotoxicity against human U87 cells assessed as cell death at 200 uM after 24 hrs relative to control; type: functional, U-87MG ATCC
U-87 MG [8] = assay: Cytotoxicity against human U87 cells assessed as cell death at 200 uM after 3 hrs relative to control; type: functional, U-87MG ATCC
DU-145 [9] = assay: Cytotoxicity against human DU145 cells assessed as cell death at 200 uM after 24 hrs relative to control; type: functional
DU-145 [10] = assay: Cytotoxicity against human DU145 cells assessed as cell death at 200 uM after 3 hrs relative to control; type: functional
LNCaP [11] = assay: Cytotoxicity against human LNCAP cells assessed as cell death at 200 uM after 24 hrs relative to control; type: functional
LNCaP [12] = assay: Cytotoxicity against human LNCAP cells assessed as cell death at 200 uM after 3 hrs relative to control; type: functional
[13] = Cytotoxicity against F11-hTERT cells (unknown origin) assessed as cell death at 200 uM after 24 hrs relative to control; type: functional
[14] = Cytotoxicity against F11-hTERT cells (unknown origin) assessed as cell death at 200 uM after 3 hrs relative to control; type: functional
[15] = Cytotoxicity against human Fem-X cells assessed as cell death at 200 uM after 24 hrs relative to control; type: functional
[16] = Cytotoxicity against human Fem-X cells assessed as cell death at 200 uM after 3 hrs relative to control; type: functional
[17] = Toxicity in Dictyostelium discoideum assessed as mortality at 20 uM after 3 days relative to control; type: organism-based; conditions: Dictyostelium discoideum cells, read-out: Activity
[18] = Toxicity in zebrafish embryo assessed as mortality at 10 uM in presence 0.4 uJ/cm2 of irradiation measured after 36 hrs relative to control; type: organism-based, Danio rerio; conditions: zebrafish embryos, read-out: Activity
MIA PaCa-2 = assay: Cytotoxicity against human MIAPaCa2 cells assessed as cell death at 400 uM after 24 hrs; type: functional
BXPC-3 = assay: Cytotoxicity against human BxPC3 cells assessed as cell death at 400 uM after 24 hrs; type: functional
Capan-2 = assay: Cytotoxicity against human Capan2 cells assessed as cell death at 400 uM after 24 hrs; type: functional
PANC-1 = assay: Cytotoxicity against human PANC1 cells assessed as cell death at 400 uM after 24 hrs; type: functional
HeLa = assay: Cytotoxicity against human HeLa cells assessed as cell death at 20 uM measured after 3 days by trypan blue based light microscopy relative to control
[19] = Inhibition of human myosin 2a ATPase activity
[20] = molecular target: Myosin-2 heavy chain, non muscle (Acanthamoeba castellanii, UniProt P05659); assay: Inhibition of dephosphorylated Acanthamoeba non muscle myosin 2 by NADH-coupled spectrophotometric analysis
Myosin-9 = Myosin-9 (Homo sapiens, UniProt P35579); assay: Inhibition of human non-muscle myosin 2a
Myosin-10 = Myosin-10 (Homo sapiens, UniProt P35580); assay: Inhibition of human non-muscle myosin 2b
[21] = molecular target: Nonmuscle myosin heavy chain (Gallus gallus, UniProt Q789A4); assay: Inhibition of chicken non-muscle myosin 2b by NADH-coupled spectrophotometric analysis
Myosin-14 = Myosin-14 (Mus musculus, UniProt Q6URW6); assay: Inhibition of mouse non-muscle myosin 2c
[22] = Inhibition of chicken smooth muscle myosin 2 ATPase activity preincubated for 60 mins followed by ATP addition measured after 10 mins by malachite green based assay
[23] = Inhibition of bay scallop striated muscle myosin heavy chain
Myosin-4 = Myosin-4 (Oryctolagus cuniculus, UniProt Q28641); assay: Inhibition of rabbit skeletal muscle myosin 2
Sequence of Myosin-4 (Q28641 whole entry): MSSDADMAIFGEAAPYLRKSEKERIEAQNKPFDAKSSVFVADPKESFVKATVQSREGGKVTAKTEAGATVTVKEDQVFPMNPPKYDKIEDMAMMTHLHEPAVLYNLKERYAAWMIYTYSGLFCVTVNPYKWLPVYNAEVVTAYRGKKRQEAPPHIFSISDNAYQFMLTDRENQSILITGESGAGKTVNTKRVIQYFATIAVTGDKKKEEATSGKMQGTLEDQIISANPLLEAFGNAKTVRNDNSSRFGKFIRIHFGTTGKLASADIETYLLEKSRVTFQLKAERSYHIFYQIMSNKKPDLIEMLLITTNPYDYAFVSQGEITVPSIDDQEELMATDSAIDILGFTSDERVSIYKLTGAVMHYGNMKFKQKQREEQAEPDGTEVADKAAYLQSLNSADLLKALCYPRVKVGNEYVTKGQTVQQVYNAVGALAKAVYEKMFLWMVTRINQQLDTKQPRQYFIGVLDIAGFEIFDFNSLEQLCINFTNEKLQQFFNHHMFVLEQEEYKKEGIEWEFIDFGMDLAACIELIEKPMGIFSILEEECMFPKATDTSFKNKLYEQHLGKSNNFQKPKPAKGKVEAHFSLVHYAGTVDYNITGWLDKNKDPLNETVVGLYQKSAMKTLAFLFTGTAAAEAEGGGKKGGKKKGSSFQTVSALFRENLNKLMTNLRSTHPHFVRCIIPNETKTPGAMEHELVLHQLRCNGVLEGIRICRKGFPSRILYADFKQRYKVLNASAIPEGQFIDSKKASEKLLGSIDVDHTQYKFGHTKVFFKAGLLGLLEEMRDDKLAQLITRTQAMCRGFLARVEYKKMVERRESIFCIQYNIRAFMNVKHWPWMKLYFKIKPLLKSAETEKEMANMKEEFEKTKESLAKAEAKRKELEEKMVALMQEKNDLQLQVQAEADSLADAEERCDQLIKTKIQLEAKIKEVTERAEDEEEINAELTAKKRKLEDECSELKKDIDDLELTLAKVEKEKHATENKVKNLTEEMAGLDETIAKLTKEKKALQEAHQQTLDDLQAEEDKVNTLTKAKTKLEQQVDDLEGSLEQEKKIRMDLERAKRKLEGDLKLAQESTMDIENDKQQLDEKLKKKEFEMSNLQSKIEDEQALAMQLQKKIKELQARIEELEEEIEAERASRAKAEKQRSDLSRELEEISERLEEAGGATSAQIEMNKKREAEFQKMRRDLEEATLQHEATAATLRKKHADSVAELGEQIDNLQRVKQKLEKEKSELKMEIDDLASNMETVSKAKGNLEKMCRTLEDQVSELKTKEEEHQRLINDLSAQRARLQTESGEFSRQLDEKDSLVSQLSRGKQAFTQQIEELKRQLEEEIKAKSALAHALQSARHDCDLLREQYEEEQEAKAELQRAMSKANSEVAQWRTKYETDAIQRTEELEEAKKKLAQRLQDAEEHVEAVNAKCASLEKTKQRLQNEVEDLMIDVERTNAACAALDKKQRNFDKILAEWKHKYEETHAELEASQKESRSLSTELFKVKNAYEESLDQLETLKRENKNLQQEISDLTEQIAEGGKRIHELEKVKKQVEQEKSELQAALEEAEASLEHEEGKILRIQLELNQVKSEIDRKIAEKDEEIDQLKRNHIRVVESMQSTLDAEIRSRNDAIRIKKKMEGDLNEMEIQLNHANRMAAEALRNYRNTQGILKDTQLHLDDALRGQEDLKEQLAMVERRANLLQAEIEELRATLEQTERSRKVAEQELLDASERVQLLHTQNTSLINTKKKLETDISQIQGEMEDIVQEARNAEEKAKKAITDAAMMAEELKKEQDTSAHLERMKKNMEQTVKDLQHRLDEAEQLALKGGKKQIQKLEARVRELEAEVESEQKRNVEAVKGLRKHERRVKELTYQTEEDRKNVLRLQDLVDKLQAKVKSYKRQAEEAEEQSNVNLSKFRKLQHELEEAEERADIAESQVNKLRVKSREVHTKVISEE

Myosin-7 = Myosin-7 (Sus scrofa, UniProt P79293); assay: Inhibition of pig beta cardiac myosin 2 by NADH-coupled spectrophotometric analysis
[24] = molecular target: Myosin heavy chain, non-muscle (Drosophila melanogaster, UniProt Q99323); assay: Inhibition of fruit fly non-muscle myosin 2
Unconventional myosin-Ib = Unconventional myosin-Ib (Rattus norvegicus, UniProt Q05096); assay: Inhibition of rat myosin 1b by NADH-coupled spectrophotometric analysis
Myosin IC heavy chain = Myosin IC heavy chain (Acanthamoeba castellanii, UniProt P10569); assay: Inhibition of dephosphorylated Acanthamoeba […] myosin 1c by NADH-coupled spectrophotometric analysis
Unconventional myosin-Va = Unconventional myosin-Va (Mus musculus, UniProt Q99104); assay: Inhibition of mouse myosin 5a by NADH-coupled spectrophotometric analysis
Unconventional myosin-X = Unconventional myosin-X (Bos taurus, UniProt P79114); assay: Inhibition of bovine myosin x by NADH-coupled spectrophotometric analysis
Unconventional myosin-XV = Unconventional myosin-XV (Homo sapiens, UniProt Q9UKN7); assay: Inhibition of human myosin 15 by NADH-coupled spectrophotometric analysis
[25] = Inhibition of Bos taurus smooth muscle myosin 2 ATPase activity
[26] = Inhibition of Meleagris gallopavo smooth muscle myosin 2 ATPase activity
Myosin-2 heavy chain [27] = molecular target: T1, Myosin-2 heavy chain; assay: Inhibition of Dictyostelium discoideum myosin 2 ATPase activity by NADH-coupled assay

T1 sequence (P08799 whole entry): as the sequence (P08799 whole entry) above

IC50 [19]: 28 µM
SMILES: O=C1c2ccc([N+](=O)[O-])cc2N=C2N(c3ccccc3)CC[C@@]12O

IC50 [20]: 83 µM
IC50 (Myosin-9): 4 to 14 µM
IC50 (Myosin-10): 4.6 µM
IC50 [21]: 1.8 µM
IC50 (Myosin-14): 3.2 µM
IC50 [22]: 5.5 to 23.5 µM
IC50 [23]: 2.3 µM
IC50 (Myosin-4): 0.22 to 4.32 µM
IC50 (Myosin-7): 1.2 µM
IC50 [24]: > 200 µM
IC50 (Unconventional myosin-Ib): > 150 µM
IC50 (Myosin IC heavy chain): > 150 µM
IC50 (Unconventional myosin-Va): > 150 µM
IC50 (Unconventional myosin-X): > 150 µM
IC50 (Unconventional myosin-XV): > 100 µM
IC50 [25]: 4.3 to 11 µM
IC50 [26]: 80 µM
SMILES: Cc1ccc2c(c1)C(=O)C1(O)CCN(c3ccccc3)C1=N2 (racemic)

inhibition [2]: 88%
inhibition (Oryctolagus cuniculus [3]): 95%
inhibition (Oryctolagus cuniculus [4]): 84%
SMILES: O=C1c2ccccc2N=C2N(c3ccccc3)CC[C@@]12O

inhibition [2]: 90%
inhibition (Oryctolagus cuniculus [3]): 94%
inhibition (Oryctolagus cuniculus [4]): 86%
SMILES: Cc1ccc2c(c1)N=C1N(c3ccccc3)CC[C@@]1(O)C2=O

IC50 (Myosin-4): 0.4 µM
IC50 (Myosin-2 heavy chain [27]): 2.3 µM
SMILES: Cc1ccc2c(c1)C(=O)[C@]1(O)CCN(c3ccc([N+](=O)[O-])cc3)C1=N2

Further lines, the compound ahead of its results:

SMILES: Cc1ccc2c(c1)C(=O)[C@]1(O)CCN(c3ccc(Cl)cc3)C1=N2
IC50 (Myosin-2 heavy chain [1]): 1.9 µM

SMILES: Cc1cccc2c1C(=O)[C@]1(O)CCN(c3ccccc3)C1=N2
inhibition [2]: 88%
inhibition (Oryctolagus cuniculus [3]): 95%
inhibition (Oryctolagus cuniculus [4]): 86%

SMILES: Cc1ccc2c(c1)C(=O)[C@]1(O)CCN(c3ccccc3)C1=N2
solubility [5]: 7 to 11 µM (≈ 2.05 to 3.22 µg/mL)
solubility [6]: 80 µM (≈ 23.4 µg/mL)
Activity (U-87 MG [7]): 65%
Activity (U-87 MG [8]): 40%
Activity (DU-145 [9]): 90%
Activity (DU-145 [10]): 30%
Activity (LNCaP [11]): 96%
Activity (LNCaP [12]): 10%
Activity [13]: 85%
Activity [14]: 30%
Activity [15]: 100%
Activity [16]: 30%
mortality at 72 h, 20 µM [17]: 0%
mortality at 36 h, 10 µM [18]: 100%
Activity (MIA PaCa-2): 20%
Activity (BXPC-3): 25%
Activity (Capan-2): 45%
Activity (PANC-1): 0%
Activity (HeLa): 90%

SMILES: Cc1ccc2c(c1)C(=O)[C@]1(O)CCN(c3ccc(N=[N+]=[N-])cc3)C1=N2
IC50 (Myosin-2 heavy chain [27]): 5.2 µM

SMILES: Cc1cccc2c1N=C1N(c3ccccc3)CC[C@@]1(O)C2=O
inhibition [2]: 35%
inhibition (Oryctolagus cuniculus [3]): 72%
inhibition (Oryctolagus cuniculus [4]): 31%
